# Patent publication US20250129078A1, “ERBB2 INHIBITORS” (Cogent Biosciences, Inc., priority 2023, published 2025)
# Where a name gives a salt, the structure may show the parent alone.
# Tests used:
# [1] = target: ErbB2 V777L (Homo sapiens (Human), UniProt P04626, V777L); experiment: ErbB enzyme assay (CisBio HTRF-KinEASE-TK), ErbB2 V777L; format: biochemical
# Description: In vitro enzyme assays based on CisBio HTRF-KinEASE-TK technology were used to determine compound potencies. […] After another 1 h incubation at ambient temperature, the extent of substrate phosphorylation was determined using a PerkinElmer EnVision multimode plate reader via time-resolved fluorescence dual wavelength detection. The percent of control (POC) was calculated using the ratio of emission at […] to the emission at 620 nm. One hundred POC was determined using DMSO only controls (no test compounds present) and zero POC was determined using pre-quenched controls reactions. A 4-parameter logistic equation was fit to the POC values as a function of the test compound concentration and the IC50 value was determined as the point where the curve crossed 50 POC.
# [2] = target: EGFR WT (Homo sapiens (Human), UniProt P00533); experiment: ErbB enzyme assay (CisBio HTRF-KinEASE-TK), EGFR WT; format: biochemical; conditions: ATP at Km (25 μM), 1 h incubation
# Outline: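 Three-fold DMSO serial dilutions were added to kinase reactions and incubated 1 h at room temperature. Quench used 62.5 nM Sa-XL665 plus 0.25×TK-Ab-Cryptate in detection buffer, followed by another 1 h. Substrate phosphorylation was then measured by dual-wavelength HTRF.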
# ErbB2 V777L, sequence (P04626 23-1255 V777L): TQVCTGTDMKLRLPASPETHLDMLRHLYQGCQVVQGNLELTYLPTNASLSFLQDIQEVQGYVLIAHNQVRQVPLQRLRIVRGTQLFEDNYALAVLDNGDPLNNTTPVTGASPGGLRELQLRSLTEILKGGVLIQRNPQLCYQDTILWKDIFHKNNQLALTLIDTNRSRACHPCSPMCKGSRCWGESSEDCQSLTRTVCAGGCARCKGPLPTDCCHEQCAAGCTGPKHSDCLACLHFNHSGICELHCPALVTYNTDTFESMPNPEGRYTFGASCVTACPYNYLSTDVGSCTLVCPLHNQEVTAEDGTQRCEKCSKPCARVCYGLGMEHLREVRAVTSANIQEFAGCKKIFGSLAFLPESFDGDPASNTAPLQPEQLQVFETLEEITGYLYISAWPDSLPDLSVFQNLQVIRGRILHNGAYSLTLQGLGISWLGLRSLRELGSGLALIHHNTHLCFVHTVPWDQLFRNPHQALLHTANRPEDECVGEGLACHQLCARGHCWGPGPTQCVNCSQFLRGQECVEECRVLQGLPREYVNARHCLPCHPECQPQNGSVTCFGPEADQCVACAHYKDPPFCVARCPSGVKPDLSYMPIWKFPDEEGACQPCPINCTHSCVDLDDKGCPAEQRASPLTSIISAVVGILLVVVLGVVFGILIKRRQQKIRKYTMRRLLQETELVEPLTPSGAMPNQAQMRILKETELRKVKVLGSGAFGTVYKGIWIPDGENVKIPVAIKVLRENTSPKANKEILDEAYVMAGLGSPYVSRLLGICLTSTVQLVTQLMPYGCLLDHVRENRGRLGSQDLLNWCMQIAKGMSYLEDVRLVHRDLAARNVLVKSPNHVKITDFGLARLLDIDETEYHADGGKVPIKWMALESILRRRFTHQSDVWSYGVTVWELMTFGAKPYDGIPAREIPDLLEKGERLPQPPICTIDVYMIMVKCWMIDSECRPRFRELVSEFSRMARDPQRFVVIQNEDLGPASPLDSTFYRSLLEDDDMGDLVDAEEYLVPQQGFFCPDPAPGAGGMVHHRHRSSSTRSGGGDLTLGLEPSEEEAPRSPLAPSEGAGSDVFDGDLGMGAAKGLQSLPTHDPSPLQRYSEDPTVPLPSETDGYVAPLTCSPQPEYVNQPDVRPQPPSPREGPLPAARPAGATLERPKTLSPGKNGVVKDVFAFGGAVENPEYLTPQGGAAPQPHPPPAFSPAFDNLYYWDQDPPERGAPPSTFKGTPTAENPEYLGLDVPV
# EGFR WT, sequence (P00533 25-1210): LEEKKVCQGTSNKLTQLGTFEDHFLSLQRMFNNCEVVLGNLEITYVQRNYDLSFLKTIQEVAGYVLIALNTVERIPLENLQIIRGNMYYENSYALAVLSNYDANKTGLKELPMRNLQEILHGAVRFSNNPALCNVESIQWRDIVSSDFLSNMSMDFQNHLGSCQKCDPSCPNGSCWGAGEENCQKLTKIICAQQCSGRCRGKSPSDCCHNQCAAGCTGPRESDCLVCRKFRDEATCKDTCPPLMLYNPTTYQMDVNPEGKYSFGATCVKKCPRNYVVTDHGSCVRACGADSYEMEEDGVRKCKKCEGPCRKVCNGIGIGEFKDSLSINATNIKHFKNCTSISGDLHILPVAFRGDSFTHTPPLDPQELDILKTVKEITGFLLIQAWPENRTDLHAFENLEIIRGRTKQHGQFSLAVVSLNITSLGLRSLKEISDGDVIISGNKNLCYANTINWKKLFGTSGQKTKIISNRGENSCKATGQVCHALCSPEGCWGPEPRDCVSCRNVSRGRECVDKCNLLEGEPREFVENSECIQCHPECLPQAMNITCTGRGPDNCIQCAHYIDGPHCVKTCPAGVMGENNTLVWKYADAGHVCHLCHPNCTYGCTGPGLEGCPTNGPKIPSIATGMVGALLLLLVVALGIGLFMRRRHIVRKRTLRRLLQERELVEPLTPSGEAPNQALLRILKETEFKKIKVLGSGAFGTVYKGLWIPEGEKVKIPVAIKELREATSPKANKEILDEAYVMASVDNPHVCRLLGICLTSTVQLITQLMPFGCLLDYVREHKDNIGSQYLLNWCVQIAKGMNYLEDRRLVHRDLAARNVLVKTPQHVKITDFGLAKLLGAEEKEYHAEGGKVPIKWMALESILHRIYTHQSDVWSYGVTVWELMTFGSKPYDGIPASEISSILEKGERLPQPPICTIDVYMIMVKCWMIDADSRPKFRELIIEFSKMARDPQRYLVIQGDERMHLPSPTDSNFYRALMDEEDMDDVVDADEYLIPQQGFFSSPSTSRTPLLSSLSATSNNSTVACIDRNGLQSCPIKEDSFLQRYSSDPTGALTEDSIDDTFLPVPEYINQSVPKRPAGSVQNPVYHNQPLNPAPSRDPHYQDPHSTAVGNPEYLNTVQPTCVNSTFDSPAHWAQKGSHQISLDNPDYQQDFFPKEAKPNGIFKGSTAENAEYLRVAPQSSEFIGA
IC50 [1],IC50 [2],SMILES
50 to 100 nM,< 50 nM,"C=CC(=O)N1CC2CC1CN2c1ncc2ncnc(Nc3ccc(Oc4ccc5c(c4)nnn5C)c(C)c3)c2n1 (stereo not shown) [Compound 61, 1-(5-(8-((3-methyl-4-((1-methyl-1H-benzo[d][1,2,3]triazol-5-yl)oxy)phenyl)amino)pyrimido[5,4-d]pyrimidin-2-yl)-2,5-diazabicyclo[2.2.1]heptan-2-yl)prop-2-en-1-one]"
50 to 100 nM,< 50 nM,"C=CC(=O)N1CCN(c2ncc3ncnc(Nc4ccc(Oc5ccc6c(c5)nnn6C(F)F)c(C)c4)c3n2)CC1 [Compound 63, 1-(4-(8-((4-((1-(difluoromethyl)-1H-benzo[d][1,2,3]triazol-5-yl)oxy)-3-methylphenyl)amino)pyrimido[5,4-d]pyrimidin-2-yl)piperazin-1-yl)prop-2-en-1-one]"
100 to 500 nM,100 to 500 nM,"C=CC(=O)N1CCN(c2ncc3ncnc(Nc4ccc(Oc5ccc6c(c5)nnn6C)c(C)c4C)c3n2)CC1 [Compound 65, 1-[4-[4-[2,3-dimethyl-4-(1-methylbenzotriazol-5-yl)oxy-anilino]pyrimido[5,4-d]pyrimidin-6-yl]piperazin-1-yl] prop-2-en-1-one]"
50 to 100 nM,100 to 500 nM,"C=CC(=O)N1CCN(c2ncc3ncnc(Nc4cc(Cl)c(Oc5ccc6c(c5)nnn6C)cc4F)c3n2)CC1 [Compound 66, 1-(4-(8-((5-chloro-2-fluoro-4-((1-methyl-1H-benzo[d][1,2,3]triazol-5-yl)oxy)phenyl)amino)pyrimido[5,4-d]pyrimidin-2-yl)piperazin-1-yl)prop-2-en-1-one]"
100 to 500 nM,100 to 500 nM,"C=CC(=O)N1CCC12CN(c1ncc3ncnc(Nc4ccc(Oc5ccc6c(c5)nnn6C)c(C)c4F)c3n1)C2 [Compound 67, 1-(6-(8-((2-fluoro-3-methyl-4-((1-methyl-1H-benzo[d][1,2,3]triazol-5-yl)oxy)phenyl)amino)pyrimido[5,4-d]pyrimidin-2-yl)-1,6-diazaspiro[3.3]heptan-1-yl)prop-2-en-1-one]"
100 to 500 nM,500 to 1000 nM,"C=CC(=O)N(C)CCN(C)c1ccc2ncnc(Nc3ccc(Oc4ccc5c(c4)nnn5C)c(C)c3)c2n1 [Compound 76, N-methyl-N-(2-(methyl(4-((3-methyl-4-((1-methyl-1H-benzo[d][1,2,3]triazol-5-yl)oxy)phenyl)amino)pyrido[3,2-d]pyrimidin-6-yl)amino)ethyl)acrylamide]"
100 to 500 nM,100 to 500 nM,"C=CC(=O)N1C2CCC1CN(c1ccc3ncnc(Nc4cc(C)c(Oc5ccc6c(c5)nnn6C)cc4OC)c3n1)C2 [Compound 80, 1-(3-(4-((2-methoxy-5-methyl-4-((1-methyl-1H-benzo[d][1,2,3]triazol-5-yl)oxy)phenyl)amino)pyrido[3,2-d]pyrimidin-6-yl)-3,8-diazabicyclo[3.2.1]octan-8-yl)prop-2-en-1-one]"
50 to 100 nM,< 50 nM,"C=CC(=O)N1CCN(c2ccc3ncnc(Nc4ccc(Oc5cc(F)c6c(c5)nnn6C)c(C)c4F)c3n2)CC1 [Compound 91, 1-(4-(4-((2-fluoro-4-((7-fluoro-1-methyl-1H-benzo[d][1,2,3]triazol-5-yl)oxy)-3-methylphenyl)amino)pyrido[3,2-d]pyrimidin-6-yl)piperazin-1-yl)prop-2-en-1-one]"
50 to 100 nM,100 to 500 nM,"C=CC(=O)N1CCN(c2ccc3ncnc(Nc4cc(C)c(Oc5ccc6c(c5)nnn6C)cc4F)c3n2)CC1 [Compound 94, 1-(4-(4-((2-fluoro-5-methyl-4-((1-methyl-1H-benzo[d][1,2,3]triazol-5-yl)oxy)phenyl)amino)pyrido[3,2-d]pyrimidin-6-yl)piperazin-1-yl)prop-2-en-1-one]"
100 to 500 nM,100 to 500 nM,"C=CC(=O)N1CC2CC(C1)N2c1ccc2ncnc(Nc3ccc(Oc4ccc5c(c4)nnn5C)c(C)c3)c2n1 [Compound 96, 1-(6-(4-((3-methyl-4-((1-methyl-1H-benzo[d][1,2,3]triazol-5-yl)oxy)phenyl)amino)pyrido[3,2-d]pyrimidin-6-yl)-3,6-diazabicyclo[3.1.1]heptan-3-yl)prop-2-en-1-one]"
100 to 500 nM,500 to 1000 nM,"C=CC(=O)N1CCN(c2ncc3ncnc(Nc4ccc(Oc5ccc6c(c5)nnn6C)c(C)c4)c3c2F)CC1 [Compound 102, 1-(4-(5-fluoro-4-((3-methyl-4-((1-methyl-1H-benzo[d][1,2,3]triazol-5-yl)oxy)phenyl)amino)pyrido[3,4-d]pyrimidin-6-yl)piperazin-1-yl)prop-2-en-1-one]"
100 to 500 nM,100 to 500 nM,"C=CC(=O)N1CCN(c2ncc3ncnc(Nc4ccc(Oc5ccc6c(c5)nnn6C)c(C)c4F)c3c2F)CC1 [Compound 103, 1-(4-(5-fluoro-4-((2-fluoro-3-methyl-4-((1-methyl-1H-benzo[d][1,2,3]triazol-5-yl)oxy)phenyl)amino)pyrido[3,4-d]pyrimidin-6-yl)piperazin-1-yl)prop-2-en-1-one]"
100 to 500 nM,100 to 500 nM,"C=CC(=O)N1CCN(c2ccc3ncnc(Nc4ccc(Oc5ccc6c(c5)nnn6C)c(C)c4)c3c2F)CC1 [Compound 104, 1-(4-(5-fluoro-4-((3-methyl-4-((1-methyl-1H-benzo[d][1,2,3]triazol-5-yl)oxy)phenyl)amino)quinazolin-6-yl)piperazin-1-yl)prop-2-en-1-one]"

# Second part, the molecule before the results:
SMILES,IC50 [1],IC50 [2]
"C=CC(=O)N1C2CCC1CN(c1ncc3ncnc(Nc4cc(C)c(Oc5ccc6c(c5)ncn6C(F)F)cc4OC)c3n1)C2 [Compound 40, 1-(3-(8-((4-((1-(difluoromethyl)-1H-benzo[d]imidazol-5-yl)oxy)-2-methoxy-5-methylphenyl)amino)pyrimido[5,4-d]pyrimidin-2-yl)-3,8-diazabicyclo[3.2.1]octan-8-yl)prop-2-en-1-one 2,2,2-trifluoroacetate]",100 to 500 nM,500 to 1000 nM
"C=CC(=O)N1CCN(c2ncc3ncnc(Nc4ccc(Oc5ccc6c(c5)nnn6C)c(OC)c4F)c3n2)CC1 [Compound 45, 1-(4-(8-((2-fluoro-3-methoxy-4-((1-methyl-1H-benzo[d][1,2,3]triazol-5-yl)oxy)phenyl)amino)pyrimido [5,4-d]pyrimidin-2-yl)piperazin-1-yl)prop-2-en-1-one]",100 to 500 nM,100 to 500 nM
"C=CC(=O)N1CCN(c2ncc3ncnc(Nc4ccc(Oc5ccc6c(c5)nnn6C)c(C)c4F)c3n2)C2CC21 (stereo not shown) [Compound 48, 1-(5-(8-((2-fluoro-3-methyl-4-((1-methyl-1H-benzo[d][1,2,3]triazol-5-yl)oxy)phenyl)amino)pyrimido[5,4-d]pyrimidin-2-yl)-2,5-diazabicyclo[4.1.0]heptan-2-yl)prop-2-en-1-one]",< 50 nM,< 50 nM
"Cc1cc(Nc2ncnc3cnc(N4CCN(C(=O)/C=C/CN5CCCC5)CC4)nc23)ccc1Oc1ccc2c(c1)nnn2C [Compound 52, (E)-1-(4-(8-((3-methyl-4-((1-methyl-1H-benzo[d][1,2,3]triazol-5-yl)oxy)phenyl)amino)pyrimido [5,4-d]pyrimidin-2-yl)piperazin-1-y169yrrolidineolidin-1-yl)but-2-en-1-one]",50 to 100 nM,< 50 nM
"Cc1cc(Nc2ncnc3cnc(N4CCN(C(=O)/C=C/CN5CCOCC5)CC4)nc23)ccc1Oc1ccc2c(c1)nnn2C [Compound 53, (E)-1-(4-(8-((3-methyl-4-((1-methyl-1H-benzo[d][1,2,3]triazol-5-yl)oxy)phenyl)amino)pyrimido [5,4-d]pyrimidin-2-yl)piperazin-1-yl)-4-morpholinobut-2-en-1-one formate]",100 to 500 nM,100 to 500 nM
"COC/C=C/C(=O)N1CCN(c2ncc3ncnc(Nc4ccc(Oc5ccc6c(c5)nnn6C)c(C)c4)c3n2)CC1 [Compound 56, (E)-4-methoxy-1-(4-(8-((3-methyl-4-((1-methyl-1H-benzo[d][1,2,3]triazol-5-yl)oxy)phenyl)amino)pyrimido [5,4-d]pyrimidin-2-yl)piperazin-1-yl) but-2-en-1-one]",100 to 500 nM,500 to 1000 nM
"Cc1cc(Nc2ncnc3cnc(N4CCN(C(=O)/C=C/CO)CC4)nc23)ccc1Oc1ccc2c(c1)nnn2C [Compound 57, (E)-4-hydroxy-1-(4-(8-((3-methyl-4-((1-methyl-1H-benzo[d][1,2,3]triazol-5-yl)oxy)phenyl)amino)pyrimido [5,4-d]pyrimidin-2-yl)piperazin-1-yl)but-2-en-1-one]",100 to 500 nM,100 to 500 nM
"Cc1cc(Nc2ncnc3cnc(N4CCN(C(=O)/C=C/CN(C)C)CC4)nc23)ccc1Oc1ccc2c(c1)nnn2C [Compound 58, (E)-4-(dimethyl-amino)-1-(4-(8-((3-methyl-4-((1-methyl-1H-benzo[d][1,2,3]triazol-5-yl)oxy)phenyl)amino)pyrimido [5,4-d]pyrimidin-2-yl)piperazin-1-yl)but-2-en-1-one]",50 to 100 nM,50 to 100 nM
"Cc1c(Oc2ccc3c(c2)nnn3C)ccc(Nc2ncnc3cnc(N4CCN(C(=O)/C=C/CN5CC(F)C5)CC4)nc23)c1F [Compound 59, (E)-1-(4-(8-((2-fluoro-3-methyl-4-((1-methyl-1H-benzo[d][1,2,3]triazol-5-yl)oxy)phenyl)amino)pyrimido [5,4-d]pyrimidin-2-yl)piperazin-1-yl)-4-(3-fluoroazetidin-1-yl)but-2-en-1-one]",100 to 500 nM,100 to 500 nM
"C=CC(=O)N1C2CC1CN(c1ncc3ncnc(Nc4ccc(Oc5ccc6c(c5)nnn6C)c(C)c4)c3n1)C2 [Compound 60, 1-(3-(8-((3-methyl-4-((1-methyl-1H-benzo[d][1,2,3]triazol-5-yl)oxy)phenyl)amino)pyrimido[5,4-d]pyrimidin-2-yl)-3,6-diazabicyclo[3.1.1]heptan-6-yl)prop-2-en-1-one]",50 to 100 nM,100 to 500 nM
